The values that follow are results of earlier work, collected in patent publication US20030232858A1, “Use of hydroxyeicosatetraenoic acid compounds to treat dry mouth” (priority 2002, published 2003).

Turning to `CCCCC[C@H](O)/C=C/C=C\C/C=C\C/C=C\CCCC(=O)O` [15-HETE, 15-Hydroxyeicosatetraenoic acid], the effect on psoriasis entry in the series with psoriatic skin lesions (injected into psoriatic skin lesions) is recorded as “can improve psoriasis”. In addition, the “concentration required to cause a clinical effect” value with psoriatic skin lesions (intralesional injection, 0.1 ml) was 10 µmol/L. Further, in the series on psoriatic skin lesions (intralesional injection, 0.1 ml of 10 μmol/L), the “amount required to cause a clinical effect” value is 300 ng. For the same molecule, the “effects on leukotriene B4 production or its activity” value in the series with leukotriene B4 is recorded as “inhibitory effects”. Also, the “anti-inflammatory properties in colitis” value with colitis is “minor anti-inflammatory properties”.
